Reference: article PMC6821926, “Diaminoquinazoline MMV675968 from Pathogen Box inhibits Acinetobacter baumannii growth through targeting of dihydrofolate reductase” (Scientific Reports, 2019)

Columns and labels:
Type in all cases: biochemical
[1] = biological target: T1, A. baumannii dihydrofolate reductase (AbDHFR) (Acinetobacter baumannii, UniProt A0A098SJI9); experiment: DHFR activity assay (A340) in lysate of E. coli BL21(DE3) overexpressing AbDHFR; also E. coli surrogate growth and DHFR activity in treated A. baumannii
T1 construct: gene folA; AbDHFR expressed from pET15b in E. coli BL21(DE3)

human DHFR (hDHFR) = biological target: T2, human DHFR (hDHFR) (Homo sapiens, UniProt P00374); experiment: DHFR activity assay (A340) in lysate of E. coli BL21(DE3) overexpressing hDHFR
T2 construct: hDHFR (from pL0035) expressed from pET15b in E. coli BL21(DE3)
T2 sequence (P00374 1-187): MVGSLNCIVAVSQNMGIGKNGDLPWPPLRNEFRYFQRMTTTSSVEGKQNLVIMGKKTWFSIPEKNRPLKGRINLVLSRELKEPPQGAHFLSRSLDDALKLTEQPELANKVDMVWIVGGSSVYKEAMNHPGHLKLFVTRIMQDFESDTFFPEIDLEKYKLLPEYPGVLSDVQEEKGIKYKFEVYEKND

[2] = biological target: T1, A. baumannii dihydrofolate reductase (AbDHFR); experiment: DHFR activity assay (A340) in lysate of E. coli BL21(DE3) overexpressing AbDHFR

T1 sequence (A0A098SJI9 entry or part of it): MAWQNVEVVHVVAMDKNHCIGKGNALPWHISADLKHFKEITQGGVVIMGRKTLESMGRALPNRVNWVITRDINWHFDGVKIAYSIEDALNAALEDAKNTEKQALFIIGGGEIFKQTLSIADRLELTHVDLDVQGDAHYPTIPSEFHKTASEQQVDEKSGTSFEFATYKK

Row | Structure (SMILES) | IC50 [1] [nM] | IC50 (human DHFR (hDHFR)) [nM] | IC50 [2] [nM]
1 | COc1ccc(OC)c(NCc2ccc3nc(N)nc(N)c3c2Cl)c1 [MMV675968] | 8.5 | 492 | 
2 | CCc1nc(N)nc(N)c1-c1ccc(Cl)cc1 [PYR, pyrimethamine] |  |  | 81.7
